Measured values taken from US8278296B2, “Manipulation of brain CDP-diacylglycerol and uses thereof” (priority 2006, dated 2012).
“Also recorded” adds a separate entry of the source.

Columns and labels:
[1] = tested on: CDP-diacylglycerol; experiment: [3H]CDP-diacylglycerol accumulation in rat brain slices; format: cell-based; conditions: for effect on [3H]CDP-diacylglycerol accumulation: rat hippocampal, prefrontal cortical and striatal slices, LiCl present; for effect on [3H]CDP-diacylglycerol accumulation / effect on CDP-DG production: 90 min; for effect on CDP-diacylglycerol accumulation: rat cerebrocortical slices, 0.1-300 μM, other psychotropic compounds; for effect on CDP-DG accumulation: MAOIs; for effect on CDP-DG production: monoamine receptor agonists, frontal cortex or hippocampal tissues, 5 mM LiCl
[2] = tested on: phosphatidylinositides; experiment: [3H]inositol phospholipid (phosphatidylinositide) resynthesis in rat brain slices; format: cell-based; conditions: for effect on [3H]inositol labeling of PIs (phosphatidylinositide synthesis): hippocampus, frontal cortex, striatum slices; for effect on [3H]inositol labeling of PIs (phosphatidylinositide synthesis) / effect on PI synthesis: 90 min; for effect on PI synthesis: monoamine receptor agonists, frontal cortex or hippocampal tissues, 5 mM LiCl
[3] = tested on: inositol phosphates; experiment: [3H]inositol phosphate accumulation in rat brain slices; format: cell-based; conditions: for effect on accumulation of IPs: 3-300 μM, hippocampus, frontal cortex, striatum slices; for effect on IP accumulation: monoamine receptor agonists, frontal cortex or hippocampal tissues, 5 mM LiCl, 90 min
[4] = tested on: rats; experiment: Forced swim test; format: in vivo, rat; conditions: for effect on immobility times in forced swim test: modified regimen, i.p. at 3 h and 1 h before testing; for effect of neomycin pretreatment on immobility-reducing effects of antidepressant drugs: imipramine, fluoxetine, maprotiline
Description: One group of rats was acclimated once in the swim chamber and subgroups of three animals each were administered indicated doses (corresponding to 0, 3, 10, and 30 mg/kg) of imipramine at 24, 3, and 1 h before behavioral testing (conventional regimen). The other group of rats from the same batch was acclimated twice at 48 and 24 h before the time of testing and subgroups were administered the same doses of imipramine at 3 and 1 h before behavioral testing. Animals in each group were then tested in the forced swim apparatus for 5 min and the immobility times determined. […] Each bar is the mean±SEM (n=6). […] Animals were prepared as in FIG. 14 for the modified regimen. […] Test drugs were administered at indicated doses 3 and 1 h before behavioral testing. […] Immobility response data for set one were analyzed by one-way ANOVA (response by dose) in order to determine if the drug by itself produced significant effects. Data for set two were analyzed by one-way ANOVA (response by group, where group comprised control, neomycin, drug, neomycin+drug), followed by posthoc Tukey tests. […] The forced swim test (FST) was applied with some modifications. Rats were transferred to the testing room between 9:00-10:00 AM and allowed at least an hour before being placed individually into translucent polypropylene cylinders (46 cm tall×25 cm in diameter) containing 27 cm depth of water maintained at 25° C. […] After 15 min in the water, the rats were removed, toweled, and allowed to dry in a warm environment before being returned to their home cage. This acclimation step was repeated after 24 h, with the exposure time reduced from 15 to 5 min. […] During the second acclimation exposure, the duration of immobility was recorded for each animal. […] To adjudge that a rat had become immobile, the animal had to float passively in the water in a slightly hunched, but upright position, making only minimal movements necessary to keep its head above the water (65-66). On the third day when animals were to undergo experimental assessment, saline or the indicated antidepressant agents were administered i.p. at 3 h and at 1 h before behavioral testing. The drugs were dissolved in distilled-deionized water and diluted in saline. Control subjects received 0.9% saline. […] Data were analyzed by one-way analysis of variance (ANOVA).

[5] = tested on: phosphoinositide-specific phospholipase C / PI metabolism; experiment: Blockade of PI hydrolysis (neomycin, U73122) on antidepressant-induced CDP-DG, PI and IP responses in brain slices; format: cell-based, rat; conditions: for sensitivity of drug effects to inhibition by U73122: compared with tricyclic agents
[6] = tested on: CDP-diacylglycerol/inositol phosphate; experiment: CDP-DG/IP ratio calculated from brain slice data; format: cell-based, rat
Description: FIGS. 9A-9C are ratios of antidepressant-induced CDP-diacylglycerol versus inositol phosphates. The data in FIGS. 1A-1C, 2A-2B, 3A-3C, 4A-4B, and 5A-5C were recalculated by dividing the CDP-diacylglycerol effects of each concentration of each antidepressant agent by the corresponding effects of the agent on inositol phosphate accumulation to yield the CDP-diacylglycerol/inositol phosphate (CDP-DG/IP) ratios shown. […] Data for each agent were analyzed by One-Way ANOVA followed by posthoc Dunnett tests. ^#p<0.05; *p<0.01; compared to the respective control (zero drug concentration).
As used herein, the term “CDP-DG/IP ratio” refers to the relative value of an index which is the quotient of a level of cellular CDP-diacylglycerol divided by a level of inositol phosphate in a tissue or cell or tissue cultures thereof, e.g., a mammalian brain tissue or blood platelets, a human brain tissue or blood platelets, or other cells or tissues having the ability to metabolize CDP-diacylglycerol and phosphoinositides. Levels may be determined, but are not limited to, using molar concentration or a radiolabel.
To determine if antidepressant agents exert differential effects on CDP-DG production compared to PI hydrolysis, the ratios of CDP-DG production relative to the IPs (CDP-DG/IP ratio) in corresponding treatment conditions were examined.
Corresponding CDP-DG ratios were calculated as for the antidepressant agents. […] The ratios of CDP-DG production relative to IP accumulation are shown on the far right of the graphs in FIGS. 10A-10C and FIGS. 11A-11D.

[7] = tested on: 5HT2 receptor
Description: Hippocampal slices were incubated with either [^3H]inositol (FIGS. 13A-13B) or [^3H]cytidine (FIG. 13C) for 30 min, followed by addition of indicated concentrations of LY53857 (6-methyl-1-(1-methylethyl)-ergoline-8β-carboxylic acid 2-hydroxy-1-methylpropyl ester maleate). […] After 60 min, tritiated inositol phosphate, inositol phospholipids, or CDP-diacylglycerol were assayed. Each bar is the mean±SEM (n=6). Data for each analyte were normalized across experiments and test drugs and then were analyzed for each drug by One-Way ANOVA of responses measured at the four concentration conditions of LY53857 (0, 0.1, 1, 10 μM). The ANOVAs were followed with Dunnett tests comparing the response in the presence of each concentration of LY53857 to the control effect of the antidepressant alone.
To examine the extent to which the enhancing effects of antidepressant agents on inositol phosphate accumulation were dependent on postsynaptic 5HT2 receptor stimulation, each antidepressant was challenged with a range of concentrations of the 5HT2 receptor-selective antagonist, LY53857 (71-72). The antagonist was added after the prelabeling phase, but 15 min prior to the addition of α-methylserotonin to the incubating slices.

[8] = tested on: 5HT2 receptor; experiment: α-methylserotonin-stimulated IP accumulation in tissues prelabeled with [3H]inositol in presence of antidepressants; format: cell-based, rat
[9] = monoamine receptor agonists, frontal cortex or hippocampal tissues
[10] = hippocampal slices, 0.1, 1, 10 μM

CN1Cc2c(N)cccc2C(c2ccccc2)C1 (stereo not drawn) [nomifensine]
effect on [3H]CDP-diacylglycerol accumulation [1]: significantly and dose-dependently enhanced

CNCCC(Oc1ccc(C(F)(F)F)cc1)c1ccccc1 (stereo not drawn) [fluoxetine]
effect on [3H]CDP-diacylglycerol accumulation [1]: significantly and dose-dependently enhanced
effect on [3H]inositol labeling of PIs (phosphatidylinositide synthesis) [2]: significantly increased
effect on accumulation of IPs [3]: significantly and dose-dependently stimulated
effect on immobility times in forced swim test [4]: significant and dose-dependent reductions
sensitivity of drug effects to inhibition by U73122 [5]: more sensitive

CN1C(=O)CN=C(c2ccccc2)c2cc(Cl)ccc21 [diazepam]
effect on CDP-diacylglycerol accumulation [1]: No significant effects or concentration-related effects

O=C1NC(=O)C(c2ccccc2)(c2ccccc2)N1 [phenytoin]
effect on CDP-diacylglycerol accumulation [1]: No significant effects or concentration-related effects

C#CCN(C)[C@H](C)Cc1ccccc1 [selegiline]
effect on CDP-diacylglycerol accumulation [1]: No significant effects or concentration-related effects

O=C1CN=C(c2ccccc2)c2cc([N+](=O)[O-])ccc2N1 [nitrazepam]
effect on CDP-diacylglycerol accumulation [1]: No significant effects or concentration-related effects

C#CCN(C)Cc1ccccc1 [pargyline]
effect on CDP-diacylglycerol accumulation [1]: No significant effects or concentration-related effects

N[C@@H]1C[C@H]1c1ccccc1 (racemic) [tranylcypromine]
effect on CDP-DG accumulation ([1]; frontal cortex slices): statistically significant but modest effects

COc1ccc2c(c1)CC[C@@H]1[C@@H]2CC[C@]2(C)[C@@H](NCCCCCCN3C(=O)CCC3=O)CC[C@@H]12 [U73123]
effect on CDP-DG or IP responses ([5]; inactive analog control, data not shown): without effect

CNCCCC12CCC(c3ccccc31)c1ccccc12 [maprotiline]
effect on [3H]CDP-diacylglycerol accumulation [1]: significantly and dose-dependently enhanced
effect on [3H]inositol labeling of PIs (phosphatidylinositide synthesis) [2]: significantly increased
effect on accumulation of IPs [3]: significantly and dose-dependently stimulated
effect on immobility times in forced swim test [4]: significant and dose-dependent reductions

[Cl-].[Li+] [LiCl, lithium chloride]
effect on antidepressant drug-induced [3H]CDP-diacylglycerol production ([1]; 5 mM LiCl present or absent, fluoxetine or imipramine, frontal cortex or hippocampus, 60 min): did not significantly enhance or inhibit; also recorded: did not significantly alter

O=C(CCCN1CCC(O)(c2ccc(Cl)cc2)CC1)c1ccc(F)cc1 [haloperidol]
effect on CDP-diacylglycerol accumulation [1]: No significant effects or concentration-related effects

C[N+](C)(C)CCOC(N)=O [carbachol]
effect on CDP-DG production [1]: significantly increased
effect on PI synthesis [2]: failed to increase
effect on IP accumulation [3]: significantly increased
CDP-DG/IP ratio [6, 9]: dramatic decrease

CN1[C@@H]2CC[C@H]1C[C@@H](OC(c1ccccc1)c1ccccc1)C2 [benztropine]
effect on CDP-diacylglycerol accumulation [1]: No significant effects or concentration-related effects

COc1ccc2c(c1)CC[C@@H]1[C@@H]2CC[C@]2(C)[C@@H](NCCCCCCN3C(=O)C=CC3=O)CC[C@@H]12 [U73122]
inhibition of antidepressant-stimulated IP accumulation ([5]; 100 μM fluoxetine or 300 μM imipramine, paroxetine, maprotiline, nomifensine, hippocampal or cortical slices): completely blocked
inhibition of antidepressant drug effects on CDP-DG production ([5]; 0.1 to 10 μM U73122, cortical or hippocampal slices): significantly reduced, but was unable to completely block; also recorded: only partially reduced
effect of inhibitor by itself on basal CDP-DG production ([5]; U73122 alone): did not significantly alter; also recorded: no significant effect
effect of inhibitor by itself on basal IP accumulation ([5]; U73122 alone): did not significantly alter; also recorded: no significant effect
inhibition of SKF38393-induced IP accumulation ([5]; brain slices): blocked

CCN1CCCC1CNC(=O)c1cc(S(N)(=O)=O)ccc1OC (stereo not drawn) [sulpiride]
effect on CDP-diacylglycerol accumulation [1]: No significant effects or concentration-related effects

CC(O)C(C)OC(=O)[C@@H]1C[C@@H]2c3cccc4c3c(cn4C(C)C)C[C@H]2N(C)C1.O=C(O)/C=C\C(=O)O (stereo partly drawn) [LY53857, 6-methyl-1-(1-methylethyl)-ergoline-8β-carboxylic acid 2-hydroxy-1-methylpropyl ester maleate]
increase of basal CDP-diacylglycerol ([7]; 0.1 μM, hippocampal slices): 20%
inhibition of IP responses to antidepressant agents ([7]; hippocampal slices, 300 μM imipramine, desipramine, paroxetine, maprotiline or 100 μM fluoxetine): completely blocked
effect on basal levels of IPs [7, 10]: did not significantly alter
effect on basal levels of PIs [7, 10]: did not significantly alter
inhibition of antidepressant-induced CDP-diacylglycerol responses ([7]; hippocampal slices, all drugs): statistically significantly inhibited
inhibition of antidepressant-induced PI labeling ([7]; hippocampal slices, all drugs): statistically significantly inhibited

CCN(CC)CCCC(C)Nc1c2ccc(Cl)cc2nc2ccc(OC)cc12 (stereo not drawn) [quinacrine]
effect on CDP-diacylglycerol accumulation [1]: No significant effects or concentration-related effects

NNCCc1ccccc1 [phenelzine]
concentration at which CDP-DG effects achieved significance ([1]; frontal cortex slices, Dunnett's): 1 µM
effect on CDP-DG accumulation ([1]; frontal cortex slices): robust effects
effect on [3H]inositol phospholipid synthesis (PI resynthesis) ([2]; rat cortical slices, MAOIs): significant and concentration-dependent increases
CDP-DG/IP ratio ([6]; antidepressant agents, increasing drug concentrations, hippocampus, similar in cortical tissues): increased significantly

CN(C)CCCN1c2ccccc2CCc2ccccc21 [imipramine]
effect on [3H]CDP-diacylglycerol accumulation [1]: significantly and dose-dependently enhanced
lowest concentration with statistically significant CDP-diacylglycerol response ([1]; striatum slices, posthoc Dunnett test): 30 µM
effect on [3H]inositol labeling of PIs (phosphatidylinositide synthesis) [2]: significantly increased
effect on accumulation of IPs [3]: significantly and dose-dependently stimulated
enhancement of α-methylserotonin effects on IP by prelabeling with antidepressant ([8]; frontal cortex tissues): concentration-dependently enhanced
enhancement of α-Me5HT-induced IP accumulation by prelabeling in presence of antidepressant ([8]; hippocampus, frontal cortex, striatum): significantly enhanced
enhancement of α-methylserotonin effects on IP by prelabeling with antidepressant ([8]; striatal tissues): not significantly enhanced
effect on immobility behavior in forced swim test ([4]; conventional and modified regimens, 0, 3, 10, 30 mg/kg): significant dose-related effects; also recorded: significant and dose-related
effect on immobility times in forced swim test [4]: significant and dose-dependent reductions
inhibition by 5HT2 receptor blockade (LY53857) of the drug's PI labeling / phosphatidylinositol resynthesis effect ([7]; hippocampus, similar in frontal cortex): only partially, though significantly, reduced

NO [hydroxylamine]
effect on CDP-diacylglycerol accumulation [1]: No significant effects or concentration-related effects

neomycin
effect of neomycin on SKF38393-induced decrease of immobility times ([4]; iv 2 h prior to testing): blocked
effect of neomycin pretreatment on immobility-reducing effects of antidepressant drugs ([4]; iv 2 h prior to testing): completely reversed
effect of neomycin pretreatment on immobility-reducing effects of antidepressant drugs ([4]; iv 2 h prior to testing, listed as Neomycin): abolished
effect of neomycin by itself on basal immobility times ([4]; iv tail vein 2 h prior to testing): did not significantly alter

OCCN1CCN(CC/C=C2/c3ccccc3Sc3ccc(C(F)(F)F)cc32)CC1 [flupenthioxol]
effect on CDP-diacylglycerol accumulation [1]: No significant effects or concentration-related effects

Fc1ccc([C@@H]2CCNC[C@H]2COc2ccc3c(c2)OCO3)cc1 [paroxetine]
sensitivity of drug effects to inhibition by U73122 [5]: more sensitive

Oc1cc2c(cc1O)C(c1ccccc1)CNCC2 (racemic) [SKF38393, (+/−)-1-phenyl-2,3,4,5-tetrahydro-(1H)-3-benzazepine-7,8-diol]
effect on CDP-DG production [1]: significantly increased
effect on PI synthesis [2]: significantly enhanced
effect on IP accumulation [3]: significantly increased
CDP-DG/IP ratio [6, 9]: increased CDP-DG/IP ratios significantly
ratio of CDP-DG relative to PIs (CDP-DG/PI ratio) ([6]; prefrontal cortical slices): significantly enhanced
ratio of CDP-DG relative to both inositol derivatives (CDP-DG/IP&PI) ([6]; prefrontal cortical slices): significantly enhanced
effect on immobility times in forced swim test [4]: significantly decreased immobility times

CN(C)CCCN1c2ccccc2Sc2ccc(Cl)cc21 [chloropromazine]
effect on CDP-diacylglycerol accumulation [1]: No significant effects or concentration-related effects
